Results on two compounds are retold here after patent publication US8562586B2, “Devices and systems for local delivery of inotropic agents to the epicardium” (Massachusetts Institute of Technology, priority 2008, dated 2013).

Molecules are shown by their SMILES. Where only a bound is given, the exact number is not on record here.

For series [1] the following is noted: intravenous infusion systems; cited from earlier work.
Series [2] can be described thus: Drug levels within the myocardium, tissue core from under the device, swine. Format: in vivo. The note with it: patch release compared with IV infusion at the same dosage, all tissue depths, FIG. 11. The text has this: The heart was arrested with a large potassium IV bolus and removed. A core of tissue from under the device was taken for measurement of drug levels within the myocardium.

In a further series the test system is Sprague Dawley rat. Nature of the series: Hemodynamic and contractile indices in anesthetized rat, epicardial alginate patch vs IV infusion. The class given is in vivo. The settings on record: for systemic vascular resistance: FIG. 5. The method, then: A Sprague Dawley rat was anesthetized with pentobarbital and catheters were placed in the right internal jugular vein and right femoral artery for continuous pressure measurement and IV access. An arteriotomy in the right carotid artery allowed passage of a Millar (Houston, Tex.) conductance pressure-volume catheter across the aortic valve and into the left ventricle. This catheter allows measurement of indices of myocardial contractile function. A tracheotomy was performed and the animal ventilated prior to sternotomy and chest retraction.
A pericardial drug releasing platform was made from a calcium crosslinked alginate disk (6.5 mm diameter) and placed on top of the left ventricle. Dobutamine was then applied to the drug release platform for pericardial inotropic treatments. […]

A short description of series [3]: Plasma dobutamine levels in arterial blood samples of swine. Format: in vivo. The note with it: FIG. 10. The text has this: Arterial blood samples were taken for measurement of plasma dobutamine levels.
The next series has as its system Hannaford swine. Nature of the series: Hemodynamic measurements in anesthetized swine, epicardial patch vs pericardial catheter vs IV. Format: in vivo. The method, then: Hannaford swine (15-25 weeks old, 45-60 kg) were fasted overnight but given full access to water. Telazol (2 mg/kg IM at a ratio of zolazepam:tiletamine of 1:1) was given IM for sedation. Anesthesia was induced with inhaled isoflurane 2% prior to tracheal intubation (9.0 cuffed). A 22 gauge peripheral IV was inserted into an ear vein for drug administration and volume resuscitation (Ringer's lactate 4 ml/kg/hr). Anesthesia was maintained during surgical preparation with isoflurane 2% in oxygen. Respiratory rate was be fixed to 10 breaths per minute and the tidal volume adjusted between 6 and 10 ml/kg to maintain expired end-tidal carbon dioxide between 35 and 40 mmHg. Inhaled isoflurane was discontinued after surgical preparation, and balanced total intravenous anesthesia was initiated with pentobarbital (10 mg/kg/hr) and pancuronium (0.5 mcg/kg/hr) prior to experimentation.
Vascular access introducer sheaths (7 FR) were placed in a femoral vein, the right internal jugular vein and both femoral arteries using a Seldinger technique under ultrasound guidance. A balloon tipped pulmonary artery catheter was inserted through the right internal jugular venous sheath and into the pulmonary artery to allow measurement of central venous pressure (CVP), pulmonary artery pressures, and thermodilution cardiac output. Heparin 5000 units was given to keep activated clotting time above 250 seconds. A pig-tail Millar conductance catheter was advanced retrograde across the aortic valve from the right femoral arterial sheath, and allows instantaneous recordings of the pressure and volume within the left ventricle. Following midline sternotomy the pericardium was retracted. Excess Ringer's lactate solution was given to replace blood losses and maintain CVP greater than 8 mm Hg. Continuous hemodynamic measurements were taken including heart rate (HR), mean arterial pressure (MAP), central venous pressure (CVP), contractility (max dP/dt), systemic vascular resistance (SVR), stroke volume (SV), cardiac output (CO) and stroke work (SW).
A pericardial drug releasing platform was constructed from 2 calcium crosslinked alginate disks which were sealed around the edges with GluStitch and formed a bladder for pericardial drug. A catheter was placed into the bladder formed by the two disks and allowed continuous infusion of inotropic drug into the pericardial fluid. This device spread drug over the surface of the heart at a controllable rate of delivery. In another experiment, dobutamine was introduced into the pericardial sac through a catheter without the use of the patch.
In yet another experiment, dobutamine was introduced intravenously.

[4] abbreviates: patch delivery, PV loop, FIG. 4.
Setting [5] is: patch release 1 mcg/kg/min compared with IV infusion at the same dosage, FIG. 3.
[6] abbreviates: patch release compared with intravenous infusion, FIG. 6.

Turning to `C[C@@H]1CC(=O)NN=C1c1ccc(NN=C(C#N)C#N)cc1` [levosimendan], the “dosage typically required for therapeutic effect on contractility” value in series [1] is at least 0.1 µg/kg/min.
On to `CC(CCc1ccc(O)cc1)NCCc1ccc(O)c(O)c1` (centres unmarked) [dobutamine], for which the myocardial dobutamine concentration entry in series [2] is “orders of magnitude higher”. In the series on Sprague Dawley rat (intravenous infusion 1 mcg/kg/min), the systemic vascular resistance result is reported as “excessively decreases”. Besides, the cardiac work efficiency entry in the series on Sprague Dawley rat (patch 1 mcg/kg/min compared with IV infusion at the same dosage, FIG. 4) is recorded as “more efficient cardiac work”. Also, the ventricular stroke volume entry with Sprague Dawley rat (patch 1 mcg/kg/min compared with IV infusion at the same dosage, pressure volume loops, FIG. 4) was “greater ventricular stroke volume”. In the series on Sprague Dawley rat (setting [4]), the “LV pressure during ejection” value was “no increase”, the diastolic filling result is listed as “minimal change” and the end-systolic volume entry is “marked reduction”. Also, the “myocardial stroke work (SW)” value with Sprague Dawley rat (patch delivery, area inside PV loop, FIG. 4) is given as “minimal increase”. Also, in the series with Sprague Dawley rat (setting [5]), the “contractility of myocardial tissue (max dP/dt)” value is listed as “greater increase in contractility” and the “duration of the increase in contractility” value is listed as “sustained for a longer period of time”. In addition, the systemic vascular resistance result in the series with Sprague Dawley rat (patch release 1 mcg/kg/min) is reported as “only minimal effect”. In the series with Sprague Dawley rat (setting [6]), the “increase in contractility relative to dose” value is “larger increase in contractility with a smaller dose”; the “potency and effect on contractility” value was “more potent and efficacious”. For the same compound, the “dosage typically required for therapeutic effect on contractility” value in series [1] was “at least 2 mcg/kg/min”. In series [3] (intravenous infusion compared with patch release), the plasma concentration entry is listed as “substantially higher”. Besides, in series [3] (pericardial (patch) delivery compared with IV delivery), the plasma drug levels entry is given as “lower”. Moreover, in the series on Hannaford swine (after pericardial application, FIG. 8), the “time response of increasing contractility” value was “very rapid”. Also, the “stroke work per stroke volume” value with Hannaford swine (patch 0.5 mcg/kg/min compared with IV infusion at the same dosage, FIG. 9) is “less”. Besides, in the series on Hannaford swine (patch release compared with release via catheter in the pericardial sac, FIG. 7), the “myocardial contractility, dose response” value is recorded as “greater increase”. In the series with Hannaford swine (patch release, FIG. 8), the cardiac output result is given as “increased”, the contractility result is listed as “increased” and the systemic vascular resistance result is given as “without significantly reducing”.
